Laboratory results as given in paper PMC10820527, “Synthesis, Characterization, and Investigation of Anti-Inflammatory and Cytotoxic Activities of Novel Thiourea Derivatives of Naproxen” (Pharmaceutics, 2023).

Experiments:
MDA-MB-231 = assay: MTT cytotoxicity assay, MDA-MB-231; assay type: cell-based, human; settings: for IC50: mean ± SD
Procedure: Three cancer cell lines (MDA-MB-231, HCT116 and HeLa; i.e., human breast cancer cells, human colorectal cancer cells, and human cervical cancer cells, respectively), and one non-malignant fibroblast MRC-5 cell line (control) were used in this study. The American Type Cell Collection (ATCC, Manassas, VA, USA) provided all examined cell lines. The cells were grown in a complete medium made up of high-glucose DMEM media supplemented with 10% fetal bovine serum and […] L-glutamine (both from Sigma-Aldrich, USA). The cells were cultured in 25 cc flasks (Thermo Fischer Scientific, Waltham, MA, USA) at 37 °C with 100% humidity in a 5% CO2 atmosphere.
The MTT test was used to assess the cytotoxicity of compounds 1–14 [44]. The cytotoxicity of naproxen was also investigated due to its clinical use and structural similarity. Throughout the exponential development period, cells were taken from culture flasks and counted, and 5 × 10^3 cells/well were planted into 96-well culture plates. Following that, the cell lines were treated with varying doses of the investigated chemicals (1–14), naproxen ([…]), and fresh complete media as a control. All evaluated cells were incubated for 24, 48, and 72 h at 37 °C in an environment containing 5% CO2 and 100% humidity. Following incubation, each well’s culture media was taken out, each well received an addition of MTT solution at a final concentration of 0.5 mg/mL, and the cells were left to incubate for an additional four hours. The MTT solution was then withdrawn carefully, and the formazan crystals were dissolved in DMSO. After shaking the plates for 10 min, absorbance at 595 nm was measured using a multiplate reader (Zenyth 3100, Anthos Labtec Instruments, Salzburg, Austria). All concentrations of the tested compounds were performed in three separate wells of the microtiter plates and in three separate experiments. The results were reported as a ratio to the control value, untreated cells. IC50 values were also determined using Microsoft Office Excel 2021. The percentage of viable cells was estimated by dividing the readout absorbance value in the wells containing treated cells by the average absorbance value measured in the wells containing untreated cells, and multiplying the result by 100 [44]. % of the viable cells = ((absorbance of treated cell-absorbance of blank)/(absorbance of untreated cell-absorbance of blank)) × 100(3)

5-LOX = molecular target: T1, 5-LOX (Homo sapiens, UniProt P09917); assay: Fluorometric 5-LOX inhibitor screening kit; assay type: biochemical; settings: mean of two measurements with standard error, read-out: 5-LOX Percent of Inhibition
T1 construct: purchased Abcam
T1 sequence (P09917 1-674): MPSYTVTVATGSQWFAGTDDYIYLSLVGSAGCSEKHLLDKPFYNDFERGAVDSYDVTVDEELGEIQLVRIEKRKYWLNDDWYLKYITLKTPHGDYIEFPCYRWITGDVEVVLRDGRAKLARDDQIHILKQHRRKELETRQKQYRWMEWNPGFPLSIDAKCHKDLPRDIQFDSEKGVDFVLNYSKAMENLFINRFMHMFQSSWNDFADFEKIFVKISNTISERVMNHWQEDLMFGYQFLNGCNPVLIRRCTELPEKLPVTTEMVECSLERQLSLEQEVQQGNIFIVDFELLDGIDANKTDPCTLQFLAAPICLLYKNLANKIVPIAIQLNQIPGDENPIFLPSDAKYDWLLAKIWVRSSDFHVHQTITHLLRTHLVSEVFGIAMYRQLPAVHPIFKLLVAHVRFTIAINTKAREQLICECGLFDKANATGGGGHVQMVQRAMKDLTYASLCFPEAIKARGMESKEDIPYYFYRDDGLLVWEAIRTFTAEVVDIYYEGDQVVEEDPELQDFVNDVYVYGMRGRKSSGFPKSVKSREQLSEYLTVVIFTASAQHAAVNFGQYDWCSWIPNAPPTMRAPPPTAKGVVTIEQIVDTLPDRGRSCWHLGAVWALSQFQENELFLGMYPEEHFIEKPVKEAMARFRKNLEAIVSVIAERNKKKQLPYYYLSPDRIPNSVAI
Procedure: The COX-2 and 5-LOX inhibitory potential of the tested compounds was evaluated using a fluorometric COX-2 and 5-LOX inhibitor screening kit (Abcam, Cambridge, UK). These tests are based on determining the presence of prostaglandin G2 (a product of COX enzyme activity) or an intermediate generated by the enzyme 5-LOX, using fluorometric detection. The mentioned experiments were performed according to the manufacturer’s instructions.
For the determination of COX-2 inhibitory potential of tested compounds, stock solutions (5 mM in DMSO) were diluted with the same solvent (test solutions). The test solutions were further diluted with COX assay buffer by mixing 2 µL of the corresponding test solution and 8 µL of COX assay buffer. For the preparation of inhibitory control (IC), celecoxib (2 µL) and COX assay buffer (8 µL) were mixed. Solvent control (SC) was prepared by mixing DMSO (2 µL) and the COX assay buffer (8 µL), enzyme control (EC) was 10 µL of COX assay buffer, while the samples (S) were 10 µL of diluted test solutions. IC, SC, EC, and S were transferred into corresponding wells. For the determination of 5-LOX inhibitory potential of tested compounds, stock solutions of the same concentration (5 mM) were prepared in DMSO. These solutions were further diluted with the same solvent to obtain the test solutions, which were added into the appropriate wells (2 µL). EC, SC, and IC were prepared by adding 2 µL of the assay buffer, DMSO, and zileuton into corresponding wells, respectively.
The fluorescence of the samples was measured kinetically at 25 °C (COX-2: Ex/Em = 535/587 nm, during 10 min; 5-LOX: Ek/Em = 500/536 nm during 20 min) using a Synergi LX multi-mode microplate reader (BioTek, Shoreline, WA, USA).

[1] = Homo sapiens, MDA-MB-231, 24 h, 24 h
[2] = Homo sapiens, MDA-MB-231, 48 h, 48 h
[3] = Homo sapiens, MDA-MB-231, 72 h, 72 h

Compound	IC50 (MDA-MB-231; [1]) [µM]	IC50 (MDA-MB-231; [2]) [µM]	IC50 (MDA-MB-231; [3]) [µM]	inhibition at 10 µM (5-LOX) [%]	Cytotoxic effect against the MDA-MB-231 cell line (in words) (MDA-MB-231)	IC50 (MDA-MB-231; 72 h) [µM]
COc1ccc2cc([C@H](C)C(=O)NC(=S)Nc3ccccc3)ccc2c1 [Compound 8, (S)-2-(6-methoxynaphthalen-2-yl)-N-(phenylcarbamothioyl)propanamide]	> 200	> 200	> 200	34.6 ± 5.84	–	–
COc1ccc2cc([C@H](C)C(=O)NC(=S)Nc3ccc(C)cc3)ccc2c1 [Compound 9, (S)-2-(6-methoxynaphthalen-2-yl)-N-(p-tolylcarbamothioyl)propanamide]	> 200	> 200	112 ± 18.1	12.9 ± 5.47	–	–
COc1ccc2cc([C@H](C)C(=O)NC(=S)Nc3ccccc3C)ccc2c1 [Compound 10, (S)-2-(6-methoxynaphthalen-2-yl)-N-(o-tolylcarbamothioyl)propanamide]	101 ± 11.2	70.5 ± 8.3	42 ± 9	27.9 ± 0.57	moderate cytotoxic effect	42.2 ± 9.8
COc1ccc2cc([C@H](C)C(=O)NC(=S)Nc3ccccc3OC)ccc2c1 [Compound 11, (S)-2-(6-methoxynaphthalen-2-yl)-N-((2-methoxyphenyl)carbamothioyl)propanamide]	> 200	> 200	> 200	31.2 ± 5.45	–	–
COc1ccc2cc([C@H](C)C(=O)NC(=S)Nc3ccccc3F)ccc2c1 [Compound 12, (S)-N-((2-fluorophenyl)carbamothioyl)-2-(6-methoxynaphthalen-2-yl)propanamide]	> 200	> 200	> 200	29.7 ± 8.56	–	–
COC(=O)[C@H](Cc1ccccc1)NC(=S)NC(=O)[C@@H](C)c1ccc2cc(OC)ccc2c1 [Compound 13, Methyl (((S)-2-(6-methoxynaphthalen-2-yl)propanoyl)carbamothioyl)phenylalaninate]	> 200	> 200	99.5 ± 8.2	19.8 ± 13.2	–	–
COC(=O)[C@H](Cc1c[nH]c2ccccc12)NC(=S)NC(=O)[C@@H](C)c1ccc2cc(OC)ccc2c1 [Compound 14, Methyl (((S)-2-(6-methoxynaphthalen-2-yl)propanoyl)carbamothioyl)tryptophanate]	> 200	> 200	117 ± 15.3	46.24 ± 0.4	–	–
